Data as given in patent publication US7838542B2, “Bicyclic compositions and methods for modulating a kinase cascade” (Kinex Pharmaceuticals, LLC, priority 2006, dated 2010).
“Also recorded” adds a separate entry of the source. Values belong to the compound of their own block, whether it stands above or below them. Numbered stars: 1 amine (or outer) side, 2 acyl side, 3 side chain; on linkers, the order of the positions; unused ones are H or OH. Square brackets hold non-standard residues; d marks the D form. Peptide text beside a SMILES is read from it. X2 = O=C([C@H](CNS(=O)(=O)O)N[*:1])[*:2]; X3 = O=C([C@H](CB(O)O)N[*:1])[*:2]

Assays:
SCID mice = conditions: mouse, in vivo, ip
pp60^c-src = pp60^c-src (Homo sapiens, UniProt P12931); test: Src inhibition (RR-SRC phosphorylation), Cellular Mimetic assay; conditions: for mode of inhibition with respect to ATP: IC50 or % inhibition monitored at ATP increased up to 1 mM; for % Inhibition of 2 mM RR-src at Inhibitor Concentration (1 mM): inhibitor 1 mM; for % Inhibition of 2 mM RR-src at Inhibitor Concentration (100 μM): inhibitor 100 μM
Chain of pp60^c-src (P12931 whole entry): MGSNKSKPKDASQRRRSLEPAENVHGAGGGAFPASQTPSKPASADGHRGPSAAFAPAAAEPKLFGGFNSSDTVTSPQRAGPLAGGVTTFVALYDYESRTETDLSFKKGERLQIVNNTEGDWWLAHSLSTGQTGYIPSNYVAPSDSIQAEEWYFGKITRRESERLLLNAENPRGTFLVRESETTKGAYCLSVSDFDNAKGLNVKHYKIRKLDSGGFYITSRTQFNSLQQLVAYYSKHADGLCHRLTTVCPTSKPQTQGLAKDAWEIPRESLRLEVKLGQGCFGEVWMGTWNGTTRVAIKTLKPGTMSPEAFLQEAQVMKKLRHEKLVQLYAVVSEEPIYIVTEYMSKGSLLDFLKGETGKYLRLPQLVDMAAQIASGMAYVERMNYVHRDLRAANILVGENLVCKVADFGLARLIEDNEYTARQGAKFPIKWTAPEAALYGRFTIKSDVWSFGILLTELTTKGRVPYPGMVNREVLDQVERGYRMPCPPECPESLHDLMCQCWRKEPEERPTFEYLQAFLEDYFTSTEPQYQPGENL

PKA [1] = target: T1, PKA (Homo sapiens, UniProt P17612); test: PKA inhibition, Literature Mimetic assay; assay type: biochemical; conditions: Literature Mimetic assay conditions
Source text: (§1) The boronic acid inhibitors 21-24 have two Arg's in their sequence also and therefore will bind to the phosphocellulose paper in addition to Kemptamide (although not as consistently or completely due to one less positive charge). Consequently, when analyzed as inhibitors, the amount of phosphorylated Kemptamide produced was not only counted, but also the amount of phosphorylated inhibitor simultaneously produced (e.g. see 26 below). The net result is that distorted IC50 curves are obtained which show net “stimulation” at higher inhibitor concentrations in some cases. […] The underlying substrate behavior of these “inhibitors” makes an accurate measurement of their inhibition potency impossible with the current assay. However, it does appear from the data that homologating the boronic acid functionality out with only CH2 groups (homologations with boronic acid non-peptide Src inhibitors may also be carried out) decreases the binding affinity and ability to function as a substrate.

PKA [2] = target: T1, PKA; test: PKA inhibition, Cellular Mimetic assay; assay type: biochemical; conditions: Cellular Mimetic assay conditions
Source text: as §1

PKA [3] = target: T1, PKA; test: STAIRe method: form of the protein kinase the inhibitor binds best to; assay type: biochemical
Source text: This was a somewhat surprising result since these inhibitors are analogs of the “end product inhibitors” 1 and 12 which must bind simultaneously with MgADP just following phosphate transfer in the generally accepted reaction mechanism for protein kinases.

[4] = tested on: LA25 cells (temperature-sensitive pp60^v-Src transformant of NRK); test: LA25 cell growth at permissive and non-permissive temperature; assay type: cell-based, rat
Method: (§2) Active Src inhibitors can be studied in a set of side-by-side cell-based assays using normal rat kidney (NRK) cells and a temperature-sensitive pp60^v-Src transformant of this cell line (LA25). The LA25 transformant engages in anchorage- and serum-independent growth at the “permissive” temperature of 33° C. due to activation of pp60^v-src but not at the “non-permissive” temperature of 40° C. at which pp60^v-src is not activated (Li et al., 1996). The use of this pair of closely related cell lines for testing the Src inhibitors at both the permissive and non-permissive temperatures allows one to determine if a given Src inhibitor is blocking cell growth due to specific blockade of the Src signaling pathway, by a different mechanism or by a general cytotoxic effect.
(§3) As shown in this graph the growth of the LA25 cells at the permissive temperature of 33° C. is inhibited by ca. 50% at a 25 μM concentration of 43-meta relative to the LA25 cell growth at the non-permissive 40° C. as a control. […] Since the 43-meta solutions were prepared with a low concentration of DMSO for solubilization, a DMSO control was also run at the same concentration.

[5] = tested on: normal rat kidney (NRK) cells; test: NRK non-transformed cell growth; assay type: cell-based
Method: as §2, §3

PC-3 = test: NIH 60-tumor cell panel assay, PC-3; assay type: cell-based; conditions: read-out: growth inhibition IC50, PC-3
Source text: The initial non-peptide Src inhibitors have also shown very encouraging results in four different series of cell culture assays. 1) In the NIH 60-tumor cell panel assay, broad activity (as one would expect for a Src inhibitor) was seen against the tumor cell lines, including the prostate lines. […] 3) The Src inhibitors were compared to the cancer drugs etoposide, taxol, doxorubicin and cisplatin in ovarian tumors from three different patients and an abdominal carcinoma from another patient. […] 5) Two of the Src inhibitors were also tested for inhibition of ts v-Src stimulated LA25 cell growth. […] 6) Two of the Src inhibitors were also tested for inhibition of normal rat kidney cell growth.

DU-145 = test: NIH 60-tumor cell panel assay, DU-145; assay type: cell-based; conditions: read-out: growth inhibition IC50, DU-145

% Inhibition of 2 mM RR-src at Inhibitor Concentration (1 mM) (pp60^c-src; Table IV): 0 (1 mM) %
SMILES: O=S(=O)(O)c1ccc2ccccc2c1 [Compound 29]

% Inhibition of 2 mM RR-src at Inhibitor Concentration (100 μM) (pp60^c-src; Table IV): 0 (100 μM) %
SMILES: NS(=O)(=O)c1ccc2ccccc2c1 [Compound 31]

% Inhibition of 2 mM RR-src at Inhibitor Concentration (100 μM) (pp60^c-src; Table IV): 0 (100 μM) %
SMILES: OB(O)c1cccc2ccccc12 [Compound 32]

% Inhibition of 2 mM RR-src at Inhibitor Concentration (100 μM) (pp60^c-src; Table IV): 0 (100 μM) %
SMILES: NS(=O)(=O)c1cccc2ccccc12 [Compound 34]

% Inhibition of 2 mM RR-src at Inhibitor Concentration (100 μM) (pp60^c-src; Table IV): 10 (100 μM) %
SMILES: OB(O)c1cc2ccccc2o1 [Compound 35]

% Inhibition of 2 mM RR-src at Inhibitor Concentration (100 μM) (pp60^c-src; Table IV): 12 (100 μM) %
SMILES: OB(O)c1cc2ccccc2s1 [Compound 36]

Continued, compound first:

SMILES: O=C(NCc1cccc(O)c1)c1cc2cc(F)ccc2[nH]1 [Compound 1a]
toxicity in MTD study (weight loss) (SCID mice): less toxic in mice than compound 2k

SMILES: O=C(NCc1cccc(F)c1)c1cc2cc(F)ccc2[nH]1 [Compound 1z]
melting point: 239 to 241 °C

SMILES: O=C(Nc1cccc(O)c1)c1cc2ccc(O)cc2cc1O [Compound 3]
IC50 (pp60^c-src; Table X): 16 µM

SMILES: CC[C@H](C)[C@H](NC(=O)[C@H](CNS(=O)(=O)O)NC(=O)CNC(=O)[C@H](CCCNC(=N)N)NC(=O)[C@H](CCCNC(=N)N)NC(C)=O)C(N)=O [Compound 8] (Ac-RRG[X2]I-NH2)
times tighter binding than end product phosphate inhibitor 1 (PKA [1]): 31 ×
times tighter binding than end product phosphate inhibitor 1 (PKA [2]): 108 ×
nucleotide form of the kinase bound best (STAIRe) (PKA [3]): bind best when MgATP (not MgADP or no nucleotide) is also bound

SMILES: CC[C@H](C)[C@H](NC(=O)[C@H](CB(O)O)NC(=O)CNC(=O)[C@H](CCCNC(=N)N)NC(=O)[C@H](CCCNC(=N)N)NC(C)=O)C(N)=O [Compound 21] (Ac-RRG[X3]I-NH2)
inhibition at 100 µM (pp60^c-src; read-out: % Inhibition at 100 μM (std. dev.), inhibitor 100 μM, Table IX): 14%

SMILES: OB(O)c1ccc2ccccc2c1 [Compound 27, 2-naphthalene boronic acid]
mode of inhibition with respect to ATP (pp60^c-src): not ATP-competitive inhibitors; also recorded: NON-ATP COMPETITIVE

SMILES: O=S(=O)(O)Nc1ccc2ccccc2c1 [Compound 28]
mode of inhibition with respect to ATP (pp60^c-src): not ATP-competitive inhibitors; also recorded: NON-ATP COMPETITIVE
IC50 (pp60^c-src; Table IV): 1600 µM
Ki (pp60^c-src; Table IV): 963 µM
% Inhibition of 2 mM RR-src at Inhibitor Concentration (1 mM) (pp60^c-src; Table IV): 31%

SMILES: O=P(O)(O)c1cccc2ccccc12 [Compound 33]
% Inhibition of 2 mM RR-src at Inhibitor Concentration (1 mM) (pp60^c-src; Table IV): 1 (1 mM) %

SMILES: O=C(Nc1cccc(O)c1)c1cc2ccc(O)cc2cc1O [Compound 43-meta]
v-Src induced (Src stimulated) LA25 cell growth [4]: specifically blocked the v-Src induced cell growth
inhibition at 25 µM ([4]; Rattus norvegicus, read-out: inhibition of growth of LA25 cells at the permissive temperature of 33° C., 25 μM, relative to LA25 growth at non-permissive 40° C.): ~50%
normal growth of the parent non-transformed cells [5]: without inhibiting the normal growth of the parent non-transformed cells
cell toxicity ([5]; up to 400 μM, NRK cells, LA25 cells at 40° C. and at 33° C.): lack of cell toxicity

SMILES: O=C(Nc1cccc(O)c1)c1cc2cccc(O)c2cc1O [Compound 45]
v-Src induced (Src stimulated) LA25 cell growth [4]: specifically blocked the v-Src induced cell growth
normal growth of the parent non-transformed cells [5]: without inhibiting the normal growth of the parent non-transformed cells

SMILES: O=C(NCc1cccc(O)c1)c1cc2cc(O)ccc2[nH]1 [Compound 49-meta]
IC50 (PC-3): 39 µM
IC50 (DU-145): > 100 µM
